Test [1] in a line: Binding affinity to human RFC expressed in Chinese hamster PC43-10 cells assessed as antiproliferative activity measured as reduction in cell viability after 96 hrs by Cell-Titer Blue assay.
Test [2] can be described thus: Binding affinity to human PCFT expressed in Chinese hamster R2/PCFT4 cells assessed as antiproliferative activity measured as reduction in cell viability after 96 hrs by Cell-Titer Blue assay.
The nature of test [3]: Binding affinity to human FR-beta receptor expressed in Chinese hamster D4 cells assessed as antiproliferative activity measured as reduction in cell viability after 96 hrs by Cell-Titer Blue assay.
A short description of test [4]: Binding affinity to human FR-alpha receptor expressed in Chinese hamster RT16 cells assessed as antiproliferative activity measured as reduction in cell viability after 96 hrs by Cell-Titer Blue assay.
The nature of test [5]: Binding affinity to human FR-beta receptor expressed in Chinese hamster D4 cells assessed as antiproliferative activity measured as reduction in cell viability after 96 hrs in presence of folic acid by Cell-Titer Blue assay.
The nature of test [6]: Binding affinity to human FR-alpha receptor expressed in Chinese hamster RT16 cells assessed as antiproliferative activity measured as reduction in cell viability after 96 hrs in presence of folic acid by Cell-Titer Blue assay.

As for `Nc1nc2[nH]c(CCC#Cc3ccc(C(=O)N[C@@H](CCC(=O)O)C(=O)O)cn3)cc2c(=O)[nH]1`, the concentration for half-maximal inhibition (IC50) in test [1] was greater than 1000 nM; in test [2], greater than 1000 nM; in test [3], 839 nM; in test [4], 449 nM; in test [5] it was greater than 1000 nM; in test [6], greater than 1000 nM.
In the case of `Nc1nc2[nH]c(CCCCc3ccc(C(=O)N[C@@H](CCC(=O)O)C(=O)O)cn3)cc2c(=O)[nH]1`, the IC50 in test [1] was greater than 1000 nM; in test [2], greater than 1000 nM; in test [3], 37 nM; in test [4] it was 15 nM; in test [5], greater than 1000 nM; in test [6], greater than 1000 nM.
Consider `Nc1nc2[nH]c(CCC#Cc3ccc(C(=O)N[C@@H](CCC(=O)O)C(=O)O)nc3)cc2c(=O)[nH]1`, for which the IC50 in test [1] is greater than 1000 nM; in test [2], greater than 1000 nM; in test [3] it was 19 nM; in test [4], 4.4 nM; in test [5] it was greater than 1000 nM; in test [6], greater than 1000 nM.
For `Nc1nc2[nH]c(CCCCc3cccc(C(=O)N[C@@H](CCC(=O)O)C(=O)O)n3)cc2c(=O)[nH]1`, the IC50 in test [1] is greater than 1000 nM; in test [3], greater than 1000 nM; in test [4], 186 nM; in test [5], greater than 1000 nM; in test [6], greater than 1000 nM.
With `Nc1nc2[nH]c(CCCCc3ccc(C(=O)N[C@@H](CCC(=O)O)C(=O)O)nc3)cc2c(=O)[nH]1`, the IC50 in test [1] is greater than 1000 nM; in test [2], 58 nM.
Regarding `Nc1nc2[nH]c(CCC#Cc3cccc(C(=O)N[C@@H](CCC(=O)O)C(=O)O)n3)cc2c(=O)[nH]1`, the IC50 in test [1], in test [2], in test [3], in test [4], in test [5] and in test [6] was greater than 1000 nM in each case.
As to `C#CCC(Cc1cnc2nc(N)nc(N)c2n1)c1ccc(C(=O)N[C@@H](CCC(=O)O)C(=O)O)cc1` (stereo partly specified) [CHEBI:71223], the IC50 was 0.69 nM in test [1], 57 nM in test [2], 168 nM in test [4] and greater than 1000 nM in test [6].
In the case of `Nc1nc2[nH]c(CCCCc3ccc(C(=O)N[C@@H](CCC(=O)O)C(=O)O)cc3)cc2c(=O)[nH]1` [N-{4-[4-(2-Amino-4-oxo-4,7-dihydro-3H-pyrrolo[2,3-d]pyrimidin-6-yl)butyl]benzoyl}-L-glutamic Acid], the IC50 in test [1] was greater than 1000 nM.

In general, IC50 refers to the concentration that inhibits the measured activity by half.

The values above are taken from BindingDB's records for doi:10.1021/acs.jmedchem.7b01708 (Duquesne University, 2018).
